Columns and labels:
Test in all cases: Greenhouse herbicidal activity assay, post-emergence
Format in all cases: in vivo
Settings in all cases: Post-emergence test, rate 150 g a.i./hm^2, grade by fresh weight inhibition rate
Cyperus iria = test system: Cyperus iria
How it was run: (§1)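 Letter grades (A: ≥80% to 100%; C: ≥40% to <60%; E: <20%) express fresh weight inhibition recorded 14-21 days post-spray. Weeds were treated on the leaves once they reached 3-6 leaves in chamber-grown pots, allowed to dry naturally, then kept in the chamber.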

Digitaria sanguinalis = test system: Digitaria sanguinalis
How it was run: as §1

Echinochloa crusgalli = test system: Echinochloa crusgalli
How it was run: as §1

Eclipta prostrata = test system: Eclipta prostrata
How it was run: as §1

Leptochloa chinensis = test system: Leptochloa chinensis
How it was run: as §1

SMILES	Control efficacy grade, Cyperus iria (Cyperus iria)	Control efficacy grade, Digitaria sanguinalis (Digitaria sanguinalis)	Control efficacy grade, Echinochloa crusgalli (Echinochloa crusgalli)	Control efficacy grade, Eclipta prostrata (Eclipta prostrata)	Control efficacy grade, Leptochloa chinensis (Leptochloa chinensis)	pest or weed control at 150 g/ha (Cyperus iria; Cyperus iria, read-out: Control efficacy grade, Cyperus iria) [%]	pest or weed control at 150 g/ha (Digitaria sanguinalis; Digitaria sanguinalis, read-out: Control efficacy grade, Digitaria sanguinalis) [%]	pest or weed control at 150 g/ha (Echinochloa crusgalli; Echinochloa crus-galli, read-out: Control efficacy grade, Echinochloa crusgalli) [%]	pest or weed control at 150 g/ha (Eclipta prostrata; Eclipta prostrata, read-out: Control efficacy grade, Eclipta prostrata) [%]	pest or weed control at 150 g/ha (Leptochloa chinensis; Dinebra chinensis, read-out: Control efficacy grade, Leptochloa chinensis) [%]
CCCC[S+]([O-])c1c(S(C)(=O)=O)ccc(C(=O)Nc2nnc(C3CC3)o2)c1Cl (racemic) [Compound 3-626]	A (Fresh weight inhibition rate≥80% to 100%)	A (Fresh weight inhibition rate≥80% to 100%)	A (Fresh weight inhibition rate≥80% to 100%)	A (Fresh weight inhibition rate≥80% to 100%)	A (Fresh weight inhibition rate≥80% to 100%)					
CCCC[S+]([O-])c1c(S(C)(=O)=O)ccc(C(=O)Nc2nnnn2C)c1Cl (racemic) [Compound 1-12]	A (Fresh weight inhibition rate≥80% to 100%)	A (Fresh weight inhibition rate≥80% to 100%)	A (Fresh weight inhibition rate≥80% to 100%)	A (Fresh weight inhibition rate≥80% to 100%)	A (Fresh weight inhibition rate≥80% to 100%)					
C=CC[S+]([O-])c1c(S(C)(=O)=O)ccc(C(=O)Nc2nnc(C3CC3)o2)c1Cl (racemic) [Compound 3-687]	A (Fresh weight inhibition rate≥80% to 100%)	A (Fresh weight inhibition rate≥80% to 100%)	B (Fresh weight inhibition rate≥260% to <80%)	A (Fresh weight inhibition rate≥80% to 100%)	A (Fresh weight inhibition rate≥80% to 100%)					
CCC[S+]([O-])c1c(S(C)(=O)=O)ccc(C(=O)Nc2nnnn2CC)c1Cl (racemic) [Compound 1-88]	A (Fresh weight inhibition rate≥80% to 100%)	A (Fresh weight inhibition rate≥80% to 100%)	A (Fresh weight inhibition rate≥80% to 100%)	A (Fresh weight inhibition rate≥80% to 100%)	A (Fresh weight inhibition rate≥80% to 100%)					
CC(C)[S+]([O-])c1c(S(C)(=O)=O)ccc(C(=O)Nc2ncnn2C)c1Cl (single isomer, unassigned) [Compound 2-8]	A (Fresh weight inhibition rate≥80% to 100%)	A (Fresh weight inhibition rate≥80% to 100%)	A (Fresh weight inhibition rate≥80% to 100%)	A (Fresh weight inhibition rate≥80% to 100%)	A (Fresh weight inhibition rate≥80% to 100%)					
Cc1nnc(NC(=O)c2ccc(S(C)(=O)=O)c(SC3CC3)c2Cl)o1 [Compound 3-77]	A (Fresh weight inhibition rate≥80% to 100%)	A (Fresh weight inhibition rate≥80% to 100%)	A (Fresh weight inhibition rate≥80% to 100%)	A (Fresh weight inhibition rate≥80% to 100%)	A (Fresh weight inhibition rate≥80% to 100%)					
CCc1nnc(NC(=O)c2ccc(S(C)(=O)=O)c([S+]([O-])C(C)C)c2Cl)o1 (stereo not shown) [Compound 3-389, 2-chloro-N-(5-ethyl-1,3,4-oxadiazol-2-yl)-3-(isopropylsulfinyl)-4-(methylsulfonyl)benzamide]						80 to 100	80 to 100	80 to 100	80 to 100	80 to 100
CCc1nnc(NC(=O)c2ccc(S(C)(=O)=O)c([S+]([O-])C3CCCCC3)c2Cl)o1 (racemic) [Compound 3-435]	A (Fresh weight inhibition rate≥80% to 100%)	A (Fresh weight inhibition rate≥80% to 100%)	A (Fresh weight inhibition rate≥80% to 100%)	A (Fresh weight inhibition rate≥80% to 100%)	A (Fresh weight inhibition rate≥80% to 100%)					

Source: US20250223268A1, “4-Methylsulfonylbenzamide Compound, Preparation Method, Herbicidal Composition And Use” (Jiangsu Flag Chemical Industry Co., Ltd., priority 2022, published 2025)
